Experimental data published in patent US9114177B2, “Block copolymer having phenylboronic acid group introduced therein, and use thereof” (THE UNIVERSITY OF TOKYO, priority 2011, dated 2015).

Key:
[1] = cited from earlier work
[2] = siRNA diffusion time of block copolymer/siRNA complexes in serum solution (complex stability); type: physicochemical; settings: siRNA not mixed with block copolymer, 50 nM, serum solution (10% FBS)
Protocol: A variety of block copolymers having different amino acid polymerization degrees and FPBA group contents were prepared as mentioned in Sections (1-i) to (1-iii) and (2-i) to (2-iii). It should be noted that PEG having a molecular weight (Mw) of 12,000 was used as methoxy-PEG-NH2. The block copolymers were mixed with siRNA fluorescently labeled with Cy3 so as to achieve an N/P ratio of 8. The resultant mixtures were left to stand still in a refrigerator for 1 to 2 hours and diluted with a serum solution (150 mM NaCl, 10 mM Hepes, 10% FBS) so as to achieve an siRNA concentration of 50 nM. The resultant diluted solutions were left to stand still at room temperature for about 1 hour, and the siRNA diffusion time was measured with a confocal laser scanning microscope (manufactured by Carl Zeiss, product name “LSM510”) (10 sec×10 times). It should be noted that, when the measurement was carried out in the same manner as above except that siRNA was not mixed with the block copolymer, the diffusion time (diffusion time of siRNA alone) was 157.5 μsec. It should be noted that GL3-siRNA was used as the siRNA.

[3] = Blood retention properties of complex; type: in vivo; settings: mice, tail vein, 20 μg siRNA
Protocol: The block copolymer (PEG-PLL 12-23/43) and Cy5-GL3-siRNA were added to a 10 mM HEPES buffer (pH 7.3) so as to achieve an N/P ratio of 8 and an siRNA concentration of 7.5 μM, and the resultant was mixed and left to stand still for about 1 to 2 hours at room temperature to prepare a complex solution. The complex solution or a solution of the siRNA (10 mM HEPES buffer) was administered to the tail veins of mice (female Balb/C nude, 6-week-old, N=4) so that the dose was 20 μg of the siRNA, and the amount of the siRNA remaining in blood was determined over time.

Row | Molecule | pKa [1] | diffusion time of siRNA alone [2] [μsec] | siRNA remaining in blood at 10 minutes after administration [3] | siRNA remaining in blood at 1 hour after administration [3]
1 | OB(O)c1ccccc1 [phenylboronic acid] | 8 to 9 | – | – | –
2 | GL3-siRNA: siRNA for firefly luciferase, SEQ ID NO: 5 and 6, fluorescently labelled (Cy3 or Cy5), tested alone (chain 1 CUUACGCUGACUACUUCGAUU; chain 2 UCGAAGUACUCAGCGUAAGUU; sense strand 5' end labeled with Cy3 (or Cy5), further chemistry not given here) | – | 157.5 | about 10% | almost no siRNA remained
